Values of other authors as cited in patent US9415078B2 (priority 2011, dated 2016).
Several values for one entry are separate records, joined by “and”; a condition that tells them apart may be missing. Identical values can stand only once. Like-named read-outs stand apart in the source and are kept apart here.

Tested on: non squamous and squamous carcinoma of lung
Details: pemetrexed-based therapy, two comparisons

Question: With `Nc1nc2[nH]cc(CCc3ccc(C(=O)N[C@@H](CCC(=O)O)C(=O)O)cc3)c2c(=O)[nH]1` [pemetrexed] as the compound, how does the “HR for survival versus the comparators” value (Non squamous patients) read?
Answer: Its value is 0.78 and 0.84.

Question: What about the “HR for survival versus the comparators” value (squamous patients) of the same compound?
Answer: Its value is 1.56 and 1.23.
